According to patent US4370489A, “Herbicidal compounds” (Hoechst Aktiengesellschaft, priority 1976, dated 1983):

Tests used:
[1] = test system: Alopecurus; assay: Post-emergence greenhouse pot trial, annual blackgrass (Example I, Table I); format: in vivo, annual blackgrass (Alopecurus); conditions: for Effect on weed grasses (evaluation scheme number), Alopecurus: greenhouse pots, 4 weeks
Description: (§1) Seeds of weed grasses were sown in pots filled with loamy soil and placed in the greenhouse for germination and emergence. As soon as the plants had developed 3 or 4 leaves, they were sprayed with wettable powder formulations, suspended in water, of compounds according to the invention.
(§2) The results and also the results of all following examples were evaluated 4 weeks later according to the following scheme:
(§3) 4 is still considered an acceptable herbicidal effect in weeds and a satisfactory preserving effect in crop plants (cf. Bolle, Nachrichtenblatt des Deutschen Pflanzenschutzdienstes 16, 1964, pages 92-94).
(§4) Effect on weed grasses in a post-emergence trial in pots
(§5) in the greenhouse (Evaluation scheme)

[2] = test system: Digitaria; assay: Post-emergence greenhouse pot trial, Digitaria (Example I, Table I); format: in vivo; conditions: greenhouse pots, 4 weeks
Description: as §1, §2, §3, §4, §5

[3] = test system: Echinochloa; assay: Post-emergence greenhouse pot trial, Echinochloa (Example I, Table I); format: in vivo; conditions: greenhouse pots, 4 weeks
Description: as §1, §2, §3, §4, §5

[4] = test system: Setaria; assay: Post-emergence greenhouse pot trial, Setaria (Example I, Table I); format: in vivo; conditions: greenhouse pots, 4 weeks
Description: as §1, §2, §3, §4, §5

[5] = test system: Lolium; assay: Post-emergence greenhouse pot trial, Lolium (Example I, Table I); format: in vivo; conditions: greenhouse pots, 4 weeks
Description: as §1, §2, §3, §4, §5

[6] = test system: Avena fatua; assay: Post-emergence trial in two stages, pots on a site without roof, wild oat (Example II, Table II); format: in vivo; conditions: for 90% effective dose: probit method; for Effect on wild oat (evaluation), Avena fatua: post-emergence
Description: as §2
(§6) The amounts of active compound required for a 90% effect, determined by the probit method (cf. Bliss, Annals of Applied Biology, 22 1935), show very distincly the difference between the compound of the invention and the comparative compound. […] None of the compounds did any harm to the wheat.
(§7) Post-emergence treatment in two different stages of development
(§8) Experiments in pots on a site without roof
(§9) stage 1: 3 to 4 leaves with beginning growth of side
(§10) stage 2: main tillering to terminated tillering.

[7] = test system: spring wheat; assay: Post-emergence trial in two stages, pots on a site without roof, spring wheat (Example II, Table II); format: in vivo
Description: as §2, §6, §7, §8, §9, §10

[8] = test system: Avena fatua; assay: Post emergence treatment in two stages, boxes on a site without roof, wild oat (Table III); format: in vivo; conditions: 0.9 kg/hectare
Description: as §2
(§11) Effect on wild oat and sugar beet
(§12) Post emergence treatment in two stages of development
(§13) boxes 20 × 24 × 22 cm in size on a site without roof

[9] = test system: sugar beet; assay: Post emergence treatment in two stages, boxes on a site without roof, sugar beet (Table III); format: in vivo; conditions: 0.9 kg/hectare
Description: as §2, §11, §12, §13

[10] = test system: Avena fatua; assay: Post-emergence treatment, pots on a site without roof, Avena fatua (Example IV, Table IV); format: in vivo; conditions: post-emergence, emulsion concentrate
Description: as §2
(§14) In summer a further experiment was carried through under similar conditions to compare the effect of compound 1a with that of comparative compound A. Both compounds were used in the form of an emulsion concentrate (Table IV).
(§15) Post-emergence treatment (evaluation scheme); experiment
(§16) in pots on a site without roof

[11] = test system: Avena ludoviciana; assay: Post-emergence treatment, pots on a site without roof, Avena ludoviciana (Example IV, Table IV); format: in vivo; conditions: post-emergence, emulsion concentrate
Description: as §2, §14, §15, §16

[12] = test system: Alopecurus myos.; assay: Post-emergence treatment, pots on a site without roof, blackgrass (Example IV, Table IV); format: in vivo, annual black-grass (Alopecurus); conditions: for Effect (evaluation scheme), Alopecurus myos.: post-emergence, emulsion concentrate
Description: as §2, §14, §15, §16

[13] = test system: spring wheat; assay: Post-emergence treatment, pots on a site without roof, spring wheat (Example IV, Table IV); format: in vivo; conditions: emulsion concentrate; note: ranges in brackets are in %
Description: as §2, §14, §15, §16

[14] = test system: spring barley; assay: Post-emergence treatment, pots on a site without roof, spring barley (Example IV, Table IV); format: in vivo; conditions: emulsion concentrate; note: ranges in brackets are in %
Description: as §2, §14, §15, §16

[15] = test system: Digitaria; assay: Pre-emergence greenhouse pot trial, Digitaria (Example V, Table V); format: in vivo
Description: as §2
(§17) In a greenhouse the compounds to be tested were sprayed on the surface of the soil directly after sowing. […] Dicotyledonous crop plants (the same as used in Example I) were not damaged by the applied amounts.
(§18) Effect on weed grasses in a pre-emergence process (evalua-
(§19) tion scheme) experiment in pots in the greenhouse.

[16] = test system: Echinochloa; assay: Pre-emergence greenhouse pot trial, Echinochloa (Example V, Table V); format: in vivo
Description: as §2, §17, §18, §19

[17] = test system: Lolium; assay: Pre-emergence greenhouse pot trial, Lolium (Example V, Table V); format: in vivo
Description: as §2, §17, §18, §19

[18] = test system: Setaria; assay: Pre-emergence greenhouse pot trial, Setaria (Example V, Table V); format: in vivo
Description: as §2, §17, §18, §19

[19] = test system: wild oat; assay: Field trial in wild oat, post-emergence treatment (Example VI, Table VI); format: in vivo; conditions: for efficiency in % (counting of panicles) / evaluation 5 weeks after treatment: post-emergence
Description: In a field trial compound 1a of the invention was sprayed in the form of a 36% wettable powder formulation onto wild oat (single system, natural growth) after the plants had developed 3 or 4 leaves.
Three lots each were treated with different concentrations of the active compound and the comparative compound, the amount of spray liquor applied being 600 liters per hectare. Besides the usual visual evaluation at the end of the trial, the number of panicles per square meter was counted. In the untreated lots 400 to 500 panicles were counted per square meter, i.e. the field was heavily infected.
The relations are still more distinct when the amount of active compound required for a 90% effect is determined by the probit method (graphical evaluation) mentioned in Example II.

COC(=O)C(C)Oc1ccc(Oc2ccc(Cl)cc2Cl)cc1 (stereo not drawn) [A, methyl-2-[4-(2',4'-dichlorophenoxy)-phenoxy]-propionate, reference compound]
amount sufficient/required to keep blackgrass satisfactorily under control ([1]; greenhouse): 2.5 kg per hectare
Effect on weed grasses (evaluation scheme number), Alopecurus ([1]; 0.15 kg/hectare): 8 (32.5 to <65.0)
Effect on weed grasses (evaluation scheme number), Alopecurus ([1]; 0.62 kg/hectare): 7 (65.0 to <75.0)
Effect on weed grasses (evaluation scheme number), Alopecurus ([1]; 2.5 kg/hectare): 4 (90.0 to <95.0)
Effect on weed grasses (evaluation scheme number), Digitaria ([2]; 0.15 kg/hectare): 8 (32.5 to <65.0)
Effect on weed grasses (evaluation scheme number), Digitaria ([2]; 0.62 kg/hectare): 3 (95.0 to <.97.5)
Effect on weed grasses (evaluation scheme number), Digitaria ([2]; 2.5 kg/hectare): 1 (100)
Effect on weed grasses (evaluation scheme number), Echinochloa ([3]; 0.15 kg/hectare): 4 (90.0 to <95.0)
Effect on weed grasses (evaluation scheme number), Echinochloa ([3]; 0.62 kg/hectare): 3 (95.0 to <.97.5)
Effect on weed grasses (evaluation scheme number), Echinochloa ([3]; 2.5 kg/hectare): 2 (97.5 to <100)
Effect on weed grasses (evaluation scheme number), Setaria ([4]; 0.15 kg/hectare): 4 (90.0 to <95.0)
Effect on weed grasses (evaluation scheme number), Setaria ([4]; 0.62 kg/hectare): 2 (97.5 to <100)
Effect on weed grasses (evaluation scheme number), Setaria ([4]; 2.5 kg/hectare): 1 (100)
Effect on weed grasses (evaluation scheme number), Lolium ([5]; 0.15 kg/hectare): 7 (65.0 to <75.0)
Effect on weed grasses (evaluation scheme number), Lolium ([5]; 0.62 kg/hectare): 5 (85.0 to <90.0)
Effect on weed grasses (evaluation scheme number), Lolium ([5]; 2.5 kg/hectare): 3 (95.0 to <.97.5)
90% effective dose ([6]; stage 1 (3 to 4 leaves with beginning growth of side)): 0.55 kg per hectare
Effect on wild oat (evaluation), Avena fatua ([6]; stage 1, 0.112 kg/hectare): 9 (0 to <32.5)
Effect on wild oat (evaluation), Avena fatua ([6]; stage 1, 0.225 kg/hectare): 8 (32.5 to <65.0)
Effect on wild oat (evaluation), Avena fatua ([6]; stage 1, 0.45 kg/hectare): 5 (85.0 to <90.0)
Effect on wild oat (evaluation), Avena fatua ([6]; stage 1, 0.9 kg/hectare): 3 (95.0 to <.97.5)
90% effective dose ([6]; stage 2 (main tillering to terminated tillering)): 0.82 kg per hectare
Effect on wild oat (evaluation), Avena fatua ([6]; stage 2, 0.112 kg/hectare): 8 (32.5 to <65.0)
Effect on wild oat (evaluation), Avena fatua ([6]; stage 2, 0.225 kg/hectare): 7 (65.0 to <75.0)
Effect on wild oat (evaluation), Avena fatua ([6]; stage 2, 0.45 kg/hectare): 5 (85.0 to <90.0)
Effect on wild oat (evaluation), Avena fatua ([6]; stage 2, 0.9 kg/hectare): 5 (85.0 to <90.0)
evaluation, spring wheat ([7]; stage 1, 0.112 kg/hectare): 1 (0)
evaluation, spring wheat ([7]; stage 1, 0.225 kg/hectare): 1 (0)
evaluation, spring wheat ([7]; stage 1, 0.45 kg/hectare): 1 (0)
evaluation, spring wheat ([7]; stage 1, 0.9 kg/hectare): 1 (0)
evaluation, spring wheat ([7]; stage 2, 0.112 kg/hectare): 1 (0)
evaluation, spring wheat ([7]; stage 2, 0.225 kg/hectare): 1 (0)
evaluation, spring wheat ([7]; stage 2, 0.45 kg/hectare): 1 (0)
evaluation, spring wheat ([7]; stage 2, 0.9 kg/hectare): 1 (0)
Effect on wild oat, Avena fatua, number ([8]; 3-leaf stage): 2 (97.5 to <100)
degree of damage % (evaluation by weight), Avena fatua ([8]; 3-leaf stage): 99%
Effect on wild oat, Avena fatua, number ([8]; start of tillering): 5 (85.0 to <90.0)
degree of damage % (evaluation by weight), Avena fatua ([8]; start of tillering): 79%
sugar beet number ([9]; 2-leaf stage): 2 (0 to 2.5)
sugar beet number ([9]; 4-leaf stage): 2 (0 to 2.5)
Effect (evaluation scheme), Avena fatua ([10]; 0.225 kg/hectare): 8 (32.5 to <65.0)
Effect (evaluation scheme), Avena fatua ([10]; 0.45 kg/hectare): 8 (32.5 to <65.0)
Effect (evaluation scheme), Avena fatua ([10]; 0.9 kg/hectare): 6 (75.0 to <85.0)
Effect (evaluation scheme), Avena ludoviciana ([11]; 0.225 kg/hectare): 7 (65.0 to <75.0)
Effect (evaluation scheme), Avena ludoviciana ([11]; 0.45 kg/hectare): 7 (65.0 to <75.0)
Effect (evaluation scheme), Avena ludoviciana ([11]; 0.9 kg/hectare): 6 (75.0 to <85.0)
Effect (evaluation scheme), Alopecurus myos. ([12]; 0.225 kg/hectare): 8 (32.5 to <65.0)
Effect (evaluation scheme), Alopecurus myos. ([12]; 0.45 kg/hectare): 6 (75.0 to <85.0)
Effect (evaluation scheme), Alopecurus myos. ([12]; 0.9 kg/hectare): 4 (90.0 to <95.0)
response of annual black-grass (Alopecurus) ([12]; in words): little
evaluation scheme, spring wheat ([13]; 0.225 kg/hectare): 1 (0)
evaluation scheme, spring wheat ([13]; 0.45 kg/hectare): 1 (0)
evaluation scheme, spring wheat ([13]; 0.9 kg/hectare): 1 (0)
evaluation scheme, spring barley ([14]; 0.225 kg/hectare): 1 (0)
evaluation scheme, spring barley ([14]; 0.45 kg/hectare): 1 (0)
evaluation scheme, spring barley ([14]; 0.9 kg/hectare): 1 (0)
Effect on weed grasses (evaluation scheme), Digitaria ([15]; 0.62 kg/hectare): 7 (65.0 to <75.0)
Effect on weed grasses (evaluation scheme), Digitaria ([15]; 1.25 kg/hectare): 4 (90.0 to <95.0)
Effect on weed grasses (evaluation scheme), Echinochloa ([16]; 0.62 kg/hectare): 4 (90.0 to <95.0)
Effect on weed grasses (evaluation scheme), Echinochloa ([16]; 1.25 kg/hectare): 3 (95.0 to <.97.5)
Effect on weed grasses (evaluation scheme), Lolium ([17]; 0.62 kg/hectare): 6 (75.0 to <85.0)
Effect on weed grasses (evaluation scheme), Lolium ([17]; 1.25 kg/hectare): 5 (85.0 to <90.0)
Effect on weed grasses (evaluation scheme), Setaria ([18]; 0.62 kg/hectare): 8 (32.5 to <65.0)
Effect on weed grasses (evaluation scheme), Setaria ([18]; 1.25 kg/hectare): 6 (75.0 to <85.0)
efficiency in % (counting of panicles) ([19]; 0.54 kg/hectare): 50.7%
evaluation 5 weeks after treatment ([19]; 0.54 kg/hectare): 8 (32.5 to <65.0)
efficiency in % (counting of panicles) ([19]; 0.72 kg/hectare): 59.9%
evaluation 5 weeks after treatment ([19]; 0.72 kg/hectare): 7 (65.0 to <75.0)
effect on wild oat ([19]; 0.90 kg per hectare, in words): insufficient
efficiency in % (counting of panicles) ([19]; 0.90 kg/hectare): 65.2%
evaluation 5 weeks after treatment ([19]; 0.90 kg/hectare): 6 (75.0 to <85.0)
amount of active compound required for a 90% effect ([19]; without wetting agent, probit method (graphical evaluation)): 2.7 kg/hectare
